{"source": "patent US11413328B2", "about": "“Methods for treating inflammatory conditions of the lungs” (priority 2016, dated 2022)", "key": {"[1]": {"test_system": "murine house dust mite driven model of allergic asthma", "experiment": "Lung resistance and compliance, prophylactic treatment in HDM asthma model (Example 9)", "type": "in vivo, BALB/c mice", "method": "(§1) Female 7-10 weeks old BALB/c mice were randomly allocated into 5 study groups one day prior to study start and subcutaneously (SC) sensitized to house dust mite (100 μg HDM in 200 μL saline plus Freund's complete adjuvant in 0.9% saline). The mice were treated with hBD-2 orally and intranasally respectively at a dose of 1.2 mg/kg/day (0.4 mg/kg TID) starting on day 12 in the morning and continued TID at approximately 6 hours intervals. The last dose was administered on day 14 one hour prior to challenge. The total number of doses were 8 doses or a total of […] hBD-2. Mice were then intranasally (IN) challenged with HDM on day 14 (HDM 25 μg in 50 μL of saline).\nLung function: Starting 48 hours after HDM challenge, measurements of lung resistance and lung compliance were carried out after methacholine challenge (3.125 MCH1; 6.25 MCH2; 12.5 MCH3 and 25 mg/mL MCH4) by anaesthetized, cannulated mice using DSI's Buxco Finepoint RC system. Data are represented as airway resistance at 10 mg/kg methacholine and as dose responsive curves."}, "[2]": {"experiment": "Pharmacokinetics after subcutaneous or intravenous administration", "type": "in vivo, NMRI female mice", "conditions": "female, NMRI, mouse, hBD-2 1 mg/kg subcutaneous or intravenous", "method": "To investigate and compare the pharmacokinetic profile of hBD-2 fused to the C-terminal (molecular weight 71.336 Da) or N-terminal (molecular weight 71.666 Da) of human serum albumin following subcutaneous or intravenous administration of a molar equivalent to 1 mg/kg hBD-2 (molecular weight […]) to NMRI female mice.\nThe animals were dosed 10 ml/kg of stock concentration of 1.65 mg/ml according to the individual body weight (300 μL for a 30 gram mouse). First blood sample was taken using a submandibular sampling method and the second following Isoflurane anaesthesia and euthanasia."}, "[3]": {"test_system": "TNF-α, IL-4, IL-5, IL-6, IL-9, IL-13 and IL-33 in lung homogenate", "experiment": "Cytokine ELISA in lung homogenate, prophylactic treatment in HDM asthma model (Example 9)", "type": "in vivo, BALB/c mice", "method": "as §1\nLung sampling for cytokine analysis: After completion of every BAL, lungs were removed from the thorax, snap frozen in liquid nitrogen and stored frozen at −80 degrees Celsius until analysis of cytokine concentration of TNF-α, IL-4, IL-5, IL-6, IL-9, IL-13 and IL-33 in lung homogenate by ELISA."}, "[4]": {"test_system": "murine house dust mite driven model of allergic asthma", "experiment": "Cell counts in BALF, prophylactic treatment in HDM asthma model (Example 9)", "type": "in vivo, BALB/c mice", "conditions": "prophylactic oral 0.4 mg/kg TID day 12 to day 14", "method": "as §1\nAirway inflammation: At 48 hours post challenge, bronchoalveolar lavage was performed washing the lungs with 3 volumes of cold PBS (0.4; 0.3 and 0.3 mL, total 1 mL). Total and differential leucocyte cell counts were determined on an automated haematological analyser Sysmex XT-2000iV."}, "[5]": {"test_system": "microbiota of the intestine", "experiment": "16S microbiota analysis, prophylactic defensin treatment in high fat diet model (Example 10)", "type": "in vivo, mice", "source_text": "Mice were housed in trios, 4 cages per group. Feed intake was registered daily just before lights were turned off at […]. Individual mice were subjected to experimental procedures in altered order both group and cage wise. Mice were kept at room temperature under a 12-hour light/dark cycle at SPF standard conditions. The treatment regime is described in FIG. 38. Mice were fed either a high fat diet (HFD) or a low fat (LF) control diet. The HFD contained 4 subgroups; 1 hBD2, 1 HD5, 1 hBD2/HD5 and 1 standard HFD without supplementation of defensins. Defensin concentration was 1.2 mg hBD2 per kg mouse per day. HD5 was given in equimolar concentration to hBD2. […] Microbial analyses were carried out to study the microbiota of the intestine. Longitudinal 16S characterization was conducted on 4 paired samples from 60 mice, 240 samples in total. Each mouse was sampled prior to diet change, 1 week post diet change, 4 weeks post diet change and at termination, thus ensuring a thorough characterization of the faecal microbiota as a result of defensin treatment."}, "[6]": {"test_system": "IL-4, IL-5, IL-8 (KC), IL-9 and IL-13 in lung tissue homogenates", "experiment": "Cytokine ELISA in lung tissue homogenates, HDM asthma model (Example 3)", "type": "in vivo, BALB/c mice", "method": "Treatment regime: Female 7-10 weeks old BALB/c mice randomly allocated into 4 study groups one day prior to study start were subcutaneously (SC) sensitized to house dust mite (100 μg HDM in 200 μL saline plus Freund's complete adjuvant in 0.9% saline). Mice were intranasally (IN) challenged with HDM on day 14 (HDM 25 μg in 50 μL of saline). hBD-2 was administered IN or orally (0.4 mg/kg TID IN; 0.4 mg/kg TID orally, 50 μL phosphate buffered saline) on day 14. The initial dose was administered 60 minutes prior to challenge, and the subsequent doses approximately 6 hours apart.\nLung tissue sampling: Lungs were removed from the thorax, snap frozen in liquid nitrogen and stored frozen at −80 degrees Celsius until analysis of cytokine concentration of IL-4, IL-5, IL-8 (KC), IL-9 and IL-13 by ELISA.\nThe lungs were exposed and excised by gently opening the thorax and by cutting down either side of the sternum and ribs and trimming back. Lungs from first 6 animals per group were removed from thorax, snap frozen in liquid nitrogen and stored frozen at −80° C. until analysis of cytokine concentration by ELISA."}, "[7]": {"test_system": "murine house dust mite/Freunds complete adjuvant driven model of allergic asthma", "experiment": "Total and differential cell counts in BALF, HDM asthma model (Example 2)", "type": "in vivo, BALB/c mice", "method": "Female 7-10 weeks old BALB/c mice were randomly allocated into 7 study groups one day prior to study start and subcutaneously (SC) sensitized to house dust mite (100 μg HDM in 200 μL saline plus Freunds complete adjuvant in 0.9% saline). Mice were then intranasally (IN) challenged with HDM on day 14 (HDM 25 μg in 50 μL of saline). […] The initial dose was administered 60 minutes prior to challenge, and the subsequent doses approximately 6 hours apart. Airway inflammation: At 48 hours post challenge, bronchoalveolar lavage was performed washing the lungs with 3 volumes of cold PBS (0.4; 0.3 and 0.3 mL, total 1 mL). Total and differential leucocyte cell counts were determined on an automated haematological analyser Sysmex XT-2000iV."}, "[8]": {"conditions": "prophylactic intranasal 0.4 mg/kg TID day 12 to day 14"}, "[9]": {"conditions": "prophylactic oral 0.4 mg/kg TID day 12 to day 14"}, "[10]": {"conditions": "prophylactic intranasal, not statistically significantly different from the control"}}, "note": "Bridges are numbered along the chain shown (N, C = ends). Where no end group is shown, it is not given here.", "data": [{"sequence": "GIGDPVTCLKSGAICHPVFCPRRYKQIGTCGLPGTKCCKKP (disulfide 8-37, 15-30, 20-38 (inferred)) [hBD-2, human beta defensin 2]", "values": [{"measurement": "decrease of pulmonary compliance", "setting": "[1]; [8]", "value": "inhibiting"}, {"measurement": "increase of airway resistance", "setting": "[1]; [8]", "value": "inhibiting"}, {"measurement": "decrease of pulmonary compliance", "setting": "[1]; [9]", "value": "inhibiting"}, {"measurement": "increase of airway resistance", "setting": "[1]; [9]", "value": "inhibiting"}, {"measurement": "half-life", "setting": "[2]; blood", "value": 1, "unit": "h"}, {"measurement": "CL renal", "setting": "[2]; in vivo, read-out: renal clearance", "value": 10, "unit": "mL/min"}, {"measurement": "IL-4 in lung homogenate", "setting": "[3]; [10]", "value": "trend towards lowering"}, {"measurement": "IL-5 in lung homogenate", "setting": "[3]; [10]", "value": "trend towards lowering"}, {"measurement": "IL-6 in lung homogenate", "setting": "[3]; [10]", "value": "trend towards lowering"}, {"measurement": "IL-9 in lung homogenate", "setting": "[3]; [10]", "value": "trend towards lowering"}, {"measurement": "IL-13 in lung homogenate", "setting": "[3]; [10]", "value": "trend towards lowering"}, {"measurement": "TNF-α in lung homogenate", "setting": "[3]; [10]", "value": "trend towards lowering"}, {"measurement": "cytokine concentrations in lung tissue homogenates (TNF-α, IL-4, IL-5, IL-6, IL-9 and IL-13)", "setting": "[3]; prophylactic oral administration", "value": "complete normalization"}, {"measurement": "neutrophil counts in BALF", "setting": "[4]", "value": "significantly inhibited"}, {"measurement": "effect on microbial presence / microbial abundance", "setting": "[5]; 1.2 mg hBD2 per kg per day in feed, HD5 equimolar, combination 50% + 50%", "value": "affected primarily the microbial presence"}, {"measurement": "abundance of Barnesiella in the colon", "setting": "[5]; prophylactic treatment, p<0.03", "value": "statistically significant increase"}, {"measurement": "abundance of Lactobacillaceae in colon", "setting": "[5]; prophylactic treatment, p=0.1", "value": "trend towards lower abundance"}, {"measurement": "IL-4 level in lung tissue homogenates", "setting": "[6]; intranasal 0.4 mg/kg TID", "value": "significant effects"}, {"measurement": "IL-5 level in lung tissue homogenates", "setting": "[6]; intranasal 0.4 mg/kg TID", "value": "significant effects"}, {"measurement": "IL-9 level in lung tissue homogenates", "setting": "[6]; intranasal 0.4 mg/kg TID", "value": "significant effects"}, {"measurement": "IL-4 level in lung tissue homogenates", "setting": "[6]; oral 0.4 mg/kg TID", "value": "significant effects"}, {"measurement": "IL-5 level in lung tissue homogenates", "setting": "[6]; oral 0.4 mg/kg TID", "value": "significant effects"}, {"measurement": "IL-9 level in lung tissue homogenates", "setting": "[6]; oral 0.4 mg/kg TID", "value": "significant effects"}, {"measurement": "neutrophil counts in BALF", "setting": "[7]; intranasal 0.4 mg/kg/day TID", "value": "significantly inhibited"}, {"measurement": "neutrophil counts in BALF", "setting": "[7]; intranasal 1.7 mg/kg/day TID", "value": "significantly inhibited"}]}]}
